Read-outs that look alike come from different tables or passages of the source.
What was measured:
KRAS-WT = KRAS-WT (Homo sapiens, UniProt P01116); test: SOS-catalyzed nucleotide exchange assay (Procedure A, TR-FRET), KRAS-WT; type: biochemical; settings: nucleotide exchange, read-out: KRAS WT GNE IC50
How it was run: (§1)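 Signal ratio (520/495 nm, excitation 340 nm) reports Bodipy-GDP retention on biotinylated RAS after SOS-catalyzed exchange with 3 mM GTP. SOS was 40 nM, except 160 nM for G12V. Room-temperature exchange lasted 60 min (90 min for G12V), following a 60 min compound preincubation.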

[1] = target: KRAS-G12C (C51S/C80L/C118S) (Homo sapiens, UniProt P01116, C118S/C51S/C80L/G12C); test: SOS-catalyzed nucleotide exchange assay (Procedure A, TR-FRET), KRAS-G12C; type: biochemical; settings: nucleotide exchange, Procedure A; read-out: KRAS G12C GNE IC50
How it was run: as §1

KRAS-G12D = KRAS-G12D (Homo sapiens, UniProt P01116, G12D); test: SOS-catalyzed nucleotide exchange assay (Procedure A, TR-FRET), KRAS-G12D; type: biochemical; settings: nucleotide exchange, read-out: KRAS G12D GNE IC50
How it was run: as §1

KRAS-G12V = KRAS-G12V (Homo sapiens, UniProt P01116, G12V); test: SOS-catalyzed nucleotide exchange assay (Procedure A, TR-FRET), KRAS-G12V; type: biochemical; settings: nucleotide exchange, read-out: KRAS G12V GNE IC50
How it was run: as §1

KRAS-G13D = KRAS-G13D (Homo sapiens, UniProt P01116, G13D); test: SOS-catalyzed nucleotide exchange assay (Procedure A, TR-FRET), KRAS-G13D; type: biochemical; settings: nucleotide exchange, Procedure A; read-out: KRAS G13D GNE IC50
MKN-1 cells = test: Cellular phospho-ERK assay, MKN-1 cells (amplified wild-type KRAS); type: cell-based; settings: Homo sapiens, read-out: MKN1 pERK IC50
How it was run: (§2)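 Cells were seeded overnight, then treated 2 h at 37° C with compound in a 10-point, 1:3 titration from 30 μM top final concentration. Lysates were assayed by AlphaLISA SureFire Ultra for p-ERK and total ERK. IC50 came from a 4-parameter logistic fit of the p-ERK/total ERK ratio.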

PANC08.13 cells = test: Cellular phospho-ERK assay, PANC08.13 cells (homozygous KRAS-G12D); type: cell-based; settings: Homo sapiens, read-out: PANC-08.13 pERK IC50
How it was run: as §2

AsPC-1 cells = test: Cellular phospho-ERK assay, AsPC-1 cells (homozygous KRAS-G12D); type: cell-based; settings: Homo sapiens, ASPC1, 2 h, read-out: AsPC1 pERK IC50
How it was run: as §2

SW620 cells = test: Cellular phospho-ERK assay, SW620 cells (homozygous KRAS-G12V); type: cell-based; settings: Homo sapiens, read-out: SW620 pERK IC50
How it was run: as §2

[2] = amplified wild-type KRAS, 2 hours

KRAS-G13D, sequence (P01116 with tags, fused parts or gaps isoform P01116-2 G13D): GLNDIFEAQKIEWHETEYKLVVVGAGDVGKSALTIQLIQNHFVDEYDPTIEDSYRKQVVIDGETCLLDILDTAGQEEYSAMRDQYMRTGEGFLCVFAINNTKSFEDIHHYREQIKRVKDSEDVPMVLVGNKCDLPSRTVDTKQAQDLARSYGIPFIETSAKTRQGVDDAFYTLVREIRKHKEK
KRAS-G12V, sequence (P01116 with tags, fused parts or gaps isoform P01116-2 G12V): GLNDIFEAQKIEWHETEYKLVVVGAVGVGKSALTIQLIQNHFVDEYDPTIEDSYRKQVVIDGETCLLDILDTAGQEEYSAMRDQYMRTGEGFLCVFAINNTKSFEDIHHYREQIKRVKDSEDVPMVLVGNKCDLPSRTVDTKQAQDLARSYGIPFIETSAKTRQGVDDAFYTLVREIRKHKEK
KRAS-G12D, sequence (P01116 with tags, fused parts or gaps isoform P01116-2 G12D): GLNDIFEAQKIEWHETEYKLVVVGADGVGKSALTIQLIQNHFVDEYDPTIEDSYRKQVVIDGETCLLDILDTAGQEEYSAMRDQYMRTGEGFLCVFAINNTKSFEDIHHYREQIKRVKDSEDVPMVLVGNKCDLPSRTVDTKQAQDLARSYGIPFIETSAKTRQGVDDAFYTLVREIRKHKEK
KRAS-WT, sequence (P01116 with tags, fused parts or gaps isoform P01116-2): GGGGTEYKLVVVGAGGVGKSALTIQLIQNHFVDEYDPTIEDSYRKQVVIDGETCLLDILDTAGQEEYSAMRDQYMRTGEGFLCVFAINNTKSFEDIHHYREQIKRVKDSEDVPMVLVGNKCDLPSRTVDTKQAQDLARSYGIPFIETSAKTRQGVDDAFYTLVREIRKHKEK
KRAS-G12C (C51S/C80L/C118S), sequence (P01116 with tags, fused parts or gaps isoform P01116-2 G12C/C51S/C80L/C118S): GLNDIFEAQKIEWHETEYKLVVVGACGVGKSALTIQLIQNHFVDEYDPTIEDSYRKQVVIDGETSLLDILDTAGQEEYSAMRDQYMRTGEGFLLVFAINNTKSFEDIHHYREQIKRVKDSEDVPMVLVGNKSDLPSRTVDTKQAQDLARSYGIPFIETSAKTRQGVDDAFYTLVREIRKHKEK

C[C@@]1(O)COCCN(c2nc(OC[C@@]34CCCN3C[C@H](F)C4)nc3sc4c(-c5c(C(F)(F)F)c(Cl)cc6[nH]ncc56)nccc4c23)C1 [Ex-40, (6S)-4-(8-(6-chloro-5-(trifluoromethyl)-1H-indazol-4-yl)-2-(((2R,7aS)-2-fluorotetrahydro-1H-pyrrolizin-7a(5H)-yl)methoxy)pyrido[4′,3′:4,5]thi-eno[2,3-d]pyrimidin-4-yl)-6-methyl-1,4-oxazepan-6-ol]
IC50 (KRAS-WT): 138 nM | IC50 [1]: 34.4 nM | IC50 (KRAS-G12D): 61.5 nM | IC50 (KRAS-G12V): 83.4 nM | IC50 (KRAS-G13D): 52.4 nM | IC50 (MKN-1 cells; [2]): 159 nM | IC50 (PANC08.13 cells; PANC-08-13, KRAS-G12D, 2 hours): 114 nM | IC50 (AsPC-1 cells; KRAS-G12D, 2 hours): 294 nM | IC50 (SW620 cells; SW-620, KRAS-G12V, 2 hours): 124 nM

Cc1cc2[nH]ncc2c(-c2nccc3c2sc2nc(OC[C@@]45CCCN4C[C@H](F)C5)nc(N4CCOC[C@@](C)(O)C4)c23)c1C(F)(F)F [Ex-126, (6S)-4-(2-(((2R,7aS)-2-fluorotetrahydro-1H-pyrrolizin-7a(5H)-yl)methoxy)-8-(6-methyl-5-(trifluoromethyl)-1H-indazol-4-yl)pyrido[4′,3′:4,5]thieno[2,3-d]pyrimidin-4-yl)-6-methyl-1,4-oxazepan-6-ol]
IC50 (KRAS-WT): 88.3 nM | IC50 [1]: 30.7 nM | IC50 (KRAS-G12D): 34.9 nM | IC50 (KRAS-G12V): 52.8 nM | IC50 (KRAS-G13D): 58.6 nM | IC50 (MKN-1 cells; [2]): 169 nM | IC50 (PANC08.13 cells; PANC-08-13, KRAS-G12D, 2 hours): 85.4 nM | IC50 (AsPC-1 cells; KRAS-G12D, 2 hours): 271 nM | IC50 (SW620 cells; SW-620, KRAS-G12V, 2 hours): 320 nM

Cc1cc2[nH]ncc2c(-c2nccc3c2sc2nc(OC[C@@]45CCCN4C[C@H](F)C5)nc(N4CCOC[C@@](C)(O)C4)c23)c1C(F)F [Ex-129, (6S)-4-(8-(5-(di-fluoromethyl)-6-methyl-1H-indazol-4-yl)-2-(((2R,7aS)-2-fluorotetrahydro-1H-pyrrolizin-7a(5H)-yl)methoxy)-pyrido[4′,3′:4,5]thieno[2,3-d]pyr-imidin-4-yl)-6-meth-yl-1,4-oxazepan-6-ol]
IC50 (KRAS-WT): 165 nM | IC50 [1]: 50 nM | IC50 (KRAS-G12D): 56.2 nM | IC50 (KRAS-G12V): 85 nM | IC50 (KRAS-G13D): 79 nM | IC50 (MKN-1 cells; [2]): 241 nM | IC50 (PANC08.13 cells; PANC-08-13, KRAS-G12D, 2 hours): 144 nM | IC50 (AsPC-1 cells; KRAS-G12D, 2 hours): 469 nM | IC50 (SW620 cells; SW-620, KRAS-G12V, 2 hours): 211 nM

C=C(C)c1c(C)cc2[nH]ncc2c1-c1nccc2c1sc1nc(OC[C@@]34CCCN3C[C@H](F)C4)nc(N3CCOC[C@@](C)(O)C3)c12 [Ex-136, (6S)-4-(2-(((2R, 7aS)-2-fluorotetra-hydro-1H-pyrrol-izin-7a(5H)-yl)meth-oxy)-8-(6-methyl-5-(prop-1-en-2-yl)-1H-indazol-4-yl)pyr-ido[4′,3′:4,5]thieno [2,3-d]pyrimidin-4-yl)-6-methyl-1,4-oxazepan-6-ol]
IC50 (KRAS-WT): 60 nM | IC50 [1]: 39 nM | IC50 (KRAS-G12D): 21.6 nM | IC50 (KRAS-G12V): 40.6 nM | IC50 (KRAS-G13D): 24.8 nM | IC50 (MKN-1 cells; 2 hours compound incubation): 118 nM | IC50 (PANC08.13 cells; PANC-08-13, 2 hours compound incubation): 58.4 nM | IC50 (AsPC-1 cells; 2 hours compound incubation): 131 nM | IC50 (SW620 cells; SW-620, 2 hours compound incubation): 253 nM
